Read-outs that look alike come from different tables or passages of the source. Ends that are not written are not given here.

The values below come from publication PMC12168616, “Machine Learning‐Assisted Prediction and Generation of Antimicrobial Peptides” (Small Science, 2025).

In one assay the test system is A. Baumannii AB5075. The format is cell-based, Acinetobacter baumannii. From the text: (§1) To evaluate the susceptibility of the different peptide sequences against clinical isolates of various bacterial pathogens, we used the minimum inhibitory concentration (MIC) assay. The MIC measures the efficacy of peptides in inhibiting bacterial growth. The specific MIC values of various peptides against Enterococcus […] ATCC19433, Staphylococcus aureus ATCC25923, Klebsiella pneumoniae ATCC43816, Acinetobacter baumannii AB5075, Pseudomonas aeruginosa PAO1, and Enterobacter species ATCC13048 were determined by measuring optical density at 600 nm (OD600 nm). […] The growth inhibition curves were used to estimate the MIC values.
(§2) Bacteria: The MIC was the lowest concentration of a drug, which inhibited the visible growth of a bacteria and could be determined by reading the absorption at 600 nm (OD600 nm) using a spectrophotometer. The peptides were subjected to antibacterial testing against gram‐positive and gram‐negative pathogens. All the ESKAPE pathogens (E. faecalis ATCC19433, S. aureus ATCC25923, K. pneumoniae ATCC43816, A. baumannii AB5075, P. aeruginosa PAO1, and E. aerogenes ATCC13048) were inoculated from nutrient agar plates to obtain a bacterial suspension by incubating the colony of bacteria in a flask containing 10 mL of Mueller Hinton broth II (MHB) at 37 °C for 24 h with gentle shaking (75 rpm). The bacterial suspensions were then diluted in MHB to 1 × 10^6 colony‐forming units (CFU) of bacteria mL^−1. Next, using serial dilutions in 96‐well plates, different concentrations of each peptide from 1.5–400 μM were prepared. 100 μL of peptide solutions at final concentration ranging between 0.75–200 μM were then added to a 96‐well plate containing 100 μL of diluted bacterial suspension. After 18–24 h incubation at 37 °C, the turbidity of the samples was observed, and the optical density of bacteria was measured using OD600 nm. All assays were performed in duplicates. The MICs were calculated as ≥90% inhibition of bacteria growth compared to the positive control wells.

The subject of a further assay is E. Faecalis ATCC19433. The format is cell-based, Enterococcus faecalis.
Text: as §1, §2

A further assay deals with E. Aerogenes ATCC13048. The format is cell-based, Enterobacter aerogenes.
Text: as §1, §2

Another assay concerns K. Pneumoniae ATCC43816. The format is cell-based, Klebsiella pneumoniae.
Text: as §1, §2

For a further assay, the system named is P. Aeruginosa PAO1. The format is cell-based, Pseudomonas aeruginosa.
Text: as §1, §2

Another assay relates to S. Aureus ATCC25923. The format is cell-based, Staphylococcus aureus.
Text: as §1, §2

Setting [1] is: broth microdilution, Mueller Hinton broth II, peptide 0.75–200 μM, 18–24 h at 37 °C, OD600 nm, MIC = ≥90% inhibition, duplicates.

With IKVILKLVTNKGNGI-NH2 [MLWH 21], in the assay with A. Baumannii AB5075 (AB5075), the “MIC A. Baumannii AB5075” value stood at 50 µM. For the same substance, the “MIC E. Faecalis ATCC19433” value with E. Faecalis ATCC19433 (ATCC19433) is 200 µM. Further, in the assay with E. Aerogenes ATCC13048 (ATCC13048), the “MIC E. Aerogenes ATCC13048” value worked out at 200 µM. Moreover, the “MIC K. Pneumoniae ATCC43816” value against K. Pneumoniae ATCC43816 (ATCC43816) is recorded as 200 µM.

Consider KFITKFVKGLGLGTL-NH2 [MLWH 23], for which the “MIC A. Baumannii AB5075” value in the assay with A. Baumannii AB5075 (AB5075) is reported as 50 µM. Further, the “MIC P. Aeruginosa PAO1” value against P. Aeruginosa PAO1 (PAO1) is 200 µM. Moreover, the “MIC K. Pneumoniae ATCC43816” value against K. Pneumoniae ATCC43816 (ATCC43816) is reported as 200 µM.

For KGFAKMFRLLKKLAR-NH2 [MLWH 32], the “MIC S. Aureus ATCC25923” value in the assay with S. Aureus ATCC25923 (ATCC25923) is on record as 6 µM. The “MIC A. Baumannii AB5075” value in the assay with A. Baumannii AB5075 (AB5075) was 3 µM. Besides, the “MIC P. Aeruginosa PAO1” value against P. Aeruginosa PAO1 (PAO1) came out at 25 µM. Moreover, the “MIC E. Faecalis ATCC19433” value with E. Faecalis ATCC19433 (ATCC19433) was found to be 12.5 µM. Also, the “MIC E. Aerogenes ATCC13048” value in the assay with E. Aerogenes ATCC13048 (ATCC13048) amounted to 25 µM. Moreover, the “MIC K. Pneumoniae ATCC43816” value against K. Pneumoniae ATCC43816 (ATCC43816) was determined as 12.5 µM.

As to KHVFAFLGGKLVKLK-NH2 [MLWH 35], the “MIC A. Baumannii AB5075” value against A. Baumannii AB5075 (AB5075) is given as 50 µM. Besides, the “MIC K. Pneumoniae ATCC43816” value in the assay with K. Pneumoniae ATCC43816 (ATCC43816) was found to be 200 µM.

For KLKGLIFAWFKGIIA-NH2 [MLWH 45], the “MIC S. Aureus ATCC25923” value in the assay on S. Aureus ATCC25923 (ATCC25923) is 100 µM. For the same substance, the “MIC A. Baumannii AB5075” value against A. Baumannii AB5075 (AB5075) is 25 µM. For the same substance, the “MIC P. Aeruginosa PAO1” value against P. Aeruginosa PAO1 (PAO1) is 200 µM. Further, the “MIC E. Faecalis ATCC19433” value in the assay with E. Faecalis ATCC19433 (ATCC19433) is given as 25 µM. In the assay with E. Aerogenes ATCC13048 (ATCC13048), the “MIC E. Aerogenes ATCC13048” value was 25 µM. Besides, in the assay with K. Pneumoniae ATCC43816 (ATCC43816), the “MIC K. Pneumoniae ATCC43816” value was 100 µM.

On to “LGVKPVFKFFKFFGK [MLWH51, peptide generated using algorithm, list 2]”, for which, in the assay on S. Aureus ATCC25923 (setting [1]), the “MIC S. Aureus ATCC25923” value worked out at 200 µM. For the same substance, the “MIC A. Baumannii AB5075” value against A. Baumannii AB5075 (setting [1]) was 12.5 µM. The “MIC P. Aeruginosa PAO1” value against P. Aeruginosa PAO1 (setting [1]) turned out to be 50 µM. Besides, the “MIC E. Faecalis ATCC19433” value in the assay on E. Faecalis ATCC19433 (setting [1]) is given as 100 µM. Also, in the assay on E. Aerogenes ATCC13048 (setting [1]), the “MIC E. Aerogenes ATCC13048” value worked out at 200 µM. Also, the “MIC K. Pneumoniae ATCC43816” value against K. Pneumoniae ATCC43816 (setting [1]) is on record as 100 µM.

With LLGFTAFIKGQIKTA-NH2 [MLWH09], the “MIC S. Aureus ATCC25923” value against S. Aureus ATCC25923 (ATCC25923) is 50 µM. In the assay with A. Baumannii AB5075 (AB5075), the “MIC A. Baumannii AB5075” value is 200 µM. The “MIC P. Aeruginosa PAO1” value against P. Aeruginosa PAO1 (PAO1) turned out to be 200 µM. Besides, the “MIC E. Faecalis ATCC19433” value against E. Faecalis ATCC19433 (ATCC19433) is on record as 50 µM. Besides, in the assay with E. Aerogenes ATCC13048 (ATCC13048), the “MIC E. Aerogenes ATCC13048” value was found to be 100 µM. The “MIC K. Pneumoniae ATCC43816” value in the assay with K. Pneumoniae ATCC43816 (ATCC43816) is given as 100 µM.

NFKIIKKVGIKLKGA-NH2 [MLWH 33]: the “MIC A. Baumannii AB5075” value against A. Baumannii AB5075 (AB5075) is given as 100 µM.

Turning to “RMFFKFKKKFKKWGQ [MLWH74, peptide generated using algorithm, list 2]”, the “MIC S. Aureus ATCC25923” value in the assay with S. Aureus ATCC25923 (setting [1]) came to 50 µM. The “MIC A. Baumannii AB5075” value in the assay on A. Baumannii AB5075 (setting [1]) amounted to 25 µM. Further, the “MIC P. Aeruginosa PAO1” value against P. Aeruginosa PAO1 (setting [1]) is reported as 200 µM. In the assay with E. Faecalis ATCC19433 (setting [1]), the “MIC E. Faecalis ATCC19433” value was determined as 200 µM. Besides, the “MIC E. Aerogenes ATCC13048” value in the assay on E. Aerogenes ATCC13048 (setting [1]) came out at 100 µM. The “MIC K. Pneumoniae ATCC43816” value in the assay with K. Pneumoniae ATCC43816 (setting [1]) was determined as 25 µM.

As to TKFGQKVIKLIAQFL-NH2 [MLWH 24], the “MIC S. Aureus ATCC25923” value against S. Aureus ATCC25923 (ATCC25923) amounted to 12.5 µM. Moreover, the “MIC A. Baumannii AB5075” value against A. Baumannii AB5075 (AB5075) is 3 µM. For the same substance, the “MIC P. Aeruginosa PAO1” value against P. Aeruginosa PAO1 (PAO1) is reported as 25 µM. The “MIC E. Faecalis ATCC19433” value in the assay with E. Faecalis ATCC19433 (ATCC19433) is listed as 6 µM. In the assay with E. Aerogenes ATCC13048 (ATCC13048), the “MIC E. Aerogenes ATCC13048” value amounted to 6 µM. The “MIC K. Pneumoniae ATCC43816” value in the assay on K. Pneumoniae ATCC43816 (ATCC43816) was found to be 6 µM.

Regarding TLVKAVAHIAKLLKF-NH2 [MLWH 22], in the assay on S. Aureus ATCC25923 (ATCC25923), the “MIC S. Aureus ATCC25923” value was determined as 100 µM. Also, in the assay with A. Baumannii AB5075 (AB5075), the “MIC A. Baumannii AB5075” value worked out at 12.5 µM. In the assay on P. Aeruginosa PAO1 (PAO1), the “MIC P. Aeruginosa PAO1” value was found to be 200 µM. Moreover, the “MIC E. Faecalis ATCC19433” value against E. Faecalis ATCC19433 (ATCC19433) was determined as 100 µM. The “MIC E. Aerogenes ATCC13048” value with E. Aerogenes ATCC13048 (ATCC13048) is on record as 200 µM. In the assay on K. Pneumoniae ATCC43816 (ATCC43816), the “MIC K. Pneumoniae ATCC43816” value was 50 µM.

For the substance VHKAFRKGSGAAILW-NH2 [MLWH 27], the “MIC A. Baumannii AB5075” value in the assay on A. Baumannii AB5075 (AB5075) was determined as 200 µM. Also, the “MIC K. Pneumoniae ATCC43816” value in the assay with K. Pneumoniae ATCC43816 (ATCC43816) worked out at 200 µM.

For the substance VQKLLKFKLKITAKA-NH2 [MLWH08], in the assay on A. Baumannii AB5075 (AB5075), the “MIC A. Baumannii AB5075” value was 100 µM. In addition, the “MIC P. Aeruginosa PAO1” value in the assay with P. Aeruginosa PAO1 (PAO1) turned out to be 200 µM. Besides, the “MIC E. Faecalis ATCC19433” value against E. Faecalis ATCC19433 (ATCC19433) came to 100 µM. For the same substance, in the assay on E. Aerogenes ATCC13048 (ATCC13048), the “MIC E. Aerogenes ATCC13048” value turned out to be 50 µM. Further, in the assay with K. Pneumoniae ATCC43816 (ATCC43816), the “MIC K. Pneumoniae ATCC43816” value was 50 µM.

Regarding WFKAIAIGLGKFIAK-NH2 [MLWH 14], the “MIC S. Aureus ATCC25923” value against S. Aureus ATCC25923 (ATCC25923) stood at 25 µM. Besides, in the assay on A. Baumannii AB5075 (AB5075), the “MIC A. Baumannii AB5075” value is given as 25 µM. Also, the “MIC E. Faecalis ATCC19433” value with E. Faecalis ATCC19433 (ATCC19433) is recorded as 25 µM. Moreover, in the assay with E. Aerogenes ATCC13048 (ATCC13048), the “MIC E. Aerogenes ATCC13048” value was determined as 25 µM. Besides, the “MIC K. Pneumoniae ATCC43816” value in the assay with K. Pneumoniae ATCC43816 (ATCC43816) is on record as 25 µM.

As for YFHLKKSFGKKLKRV-NH2 [MLWH 41], in the assay on A. Baumannii AB5075 (AB5075), the “MIC A. Baumannii AB5075” value was 100 µM.
